Laboratory results taken from paper doi:10.1101/2025.03.26.645513v1 (biorxiv, 2025).

Key:
Assay in all cases: acid ninhydrin cysteine assay, A560
SaCysK [1] = target: T1, SaCysK (Staphylococcus aureus, UniProt P63871); type: biochemical; details: substrate inhibition constant, MOPS, 37 °C, no glycerol
T1 sequence (P63871 1-310): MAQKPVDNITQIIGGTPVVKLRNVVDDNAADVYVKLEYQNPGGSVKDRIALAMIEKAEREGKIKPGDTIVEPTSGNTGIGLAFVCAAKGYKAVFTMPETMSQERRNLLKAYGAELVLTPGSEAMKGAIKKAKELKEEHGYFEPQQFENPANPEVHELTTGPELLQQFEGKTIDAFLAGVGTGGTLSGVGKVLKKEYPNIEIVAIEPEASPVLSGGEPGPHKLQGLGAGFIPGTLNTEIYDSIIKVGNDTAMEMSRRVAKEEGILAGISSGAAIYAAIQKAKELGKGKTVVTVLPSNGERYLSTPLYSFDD

NgCysK = NgCysK (Neisseria gonorrhoeae, UniProt Q5F9Q2); details: read-out: Khalf; 10 mM OAS; MOPS; 37 °C; no glycerol; cooperative
SaCysK [2] = target: T1, SaCysK; details: 10 mM OAS; MOPS; 37 °C; no glycerol

Sequence of NgCysK (Q5F9Q2 1-310): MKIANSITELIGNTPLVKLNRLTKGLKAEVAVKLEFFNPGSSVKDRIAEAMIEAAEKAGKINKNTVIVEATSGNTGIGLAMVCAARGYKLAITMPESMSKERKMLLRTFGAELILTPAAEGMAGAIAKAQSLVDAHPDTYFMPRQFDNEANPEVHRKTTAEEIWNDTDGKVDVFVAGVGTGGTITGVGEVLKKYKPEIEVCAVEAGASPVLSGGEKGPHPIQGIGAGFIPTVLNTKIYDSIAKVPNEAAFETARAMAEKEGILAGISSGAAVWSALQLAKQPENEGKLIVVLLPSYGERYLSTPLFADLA

SMILES | Ki (SaCysK [1]; 10 mM OAS) | Km (NgCysK) | Km (SaCysK [2]) | Ki (SaCysK [1]; 15 mM Na2S)
S [sodium sulfide] | 15.970 ± 12.793 mM | 23.6 ± 10.8 mM | 2.31 ± 3.57 mM | –
CC(=O)OC[C@H](N)C(=O)O [O-acetylserine] | – | – | – | 6.265 ± 2.489 mM
